Results from ChEMBL document CHEMBL5316313, “Discovery of Novel 3-Phenylpiperidine Derivatives Targeting the β-Catenin/B-Cell Lymphoma 9 Interaction as a Single Agent and in Combination with the Anti-PD-1 Antibody for the Treatment of Colorectal Cancer” (J Med Chem, 2023).
The source made the active and inactive calls. The calls are words filed in the database; no cut-off is given here.

Legend:
CT26 [1] = details: Mus musculus, BALB/c, dose 30.0 mg/kg, route ip
Description: In vivo inhibition of Wnt signaling pathway in mouse CT26 cells implanted in BALB/c mouse assessed as reduction in Lgr5 mRNA expression level in tumor at 30 mg/kg, ip QD by qRT-PCR analysis

HCT-116 = experiment: Induction of apoptosis in Wnt-dependent human HCT-116 cells assessed as late apoptotic cells at 20 uM incubated for 24 hrs by Annexin V-Alexa Fluor 647/PI staining based flow cytomtery (Rvb=14.7%); assay type: functional
CT26 [2] = experiment: Synergistic antitumor activity in mouse CT26 cells xenografted in BALB/c mouse assessed as increase in IFNgamma-positive CD8+ T cell infiltration into tumor at 30 mg/kg, ip QD in presence of anti-PD-1 antibody cotreatment at 10 mg/kg,ip BIW by flow cytometry; assay type: functional, organism-based
[3] = Toxicity in BALB/c mouse xenografted with mouse CT26 cells assessed as body weight loss at 30 mg/kg, ip QD and measured upto 9 days in presence of anti-PD-1 antibody cotreatment at 10 mg/kg,ip BIW; assay type: organism-based; details: in vivo, 216 h, time < 9 day
HEK293 [4] = experiment: Antiproliferative activity against Wnt-independent human HEK293 cells assessed as cell growth inhibition at 40 uM incubated for 48 hrs by CellTiter-Glo assay; assay type: functional, cell-based
CT26 [5] = experiment: Antitumor activity in mouse CT26 cells xenografted in BALB/c mouse assessed as increase in IFNG mRNA expression level in tumor at 30 mg/kg, ip QD by qRT-PCR analysis; assay type: functional, organism-based
CT26 [6] = experiment: Antitumor activity against mouse CT26 cells xenografted in BALB/c mouse assessed as tumor growth inhibition at 10 to 30 mg/kg, ip QD and measured upto 9 days; assay type: functional, organism-based; details: dose 10-30 mg/kg, time <= 9.0 day
HEK293 [7] = experiment: Induction of apoptosis in Wnt-independent human HEK293 cells assessed as necrotic cells at 20 uM incubated for 24 hrs by Annexin V-Alexa Fluor 647/PI staining based flow cytomtery (Rvb=1.82%); assay type: functional
[8] = Toxicity in BALB/c mouse xenografted with mouse CT26 cells assessed as pathological changes in bone marrow at 30 mg/kg, ip QD in presence of anti-PD-1 antibody cotreatment at 10 mg/kg,ip BIW by hematoxylin and eosin staining based microscopic analysis; assay type: organism-based; details: in vivo
[9] = biological target: T1, beta-catenin-B-cell lymphoma 9 protein complex (Homo sapiens, UniProt P35222); experiment: Inhibition of beta-catenin/BCL9 protein-protein interaction in Wnt-independent human HEK293 cells assessed as reduction in Axin2 expression level by qRT-PCR assay; assay type: cell-based
T1 sequence (P35222 whole entry): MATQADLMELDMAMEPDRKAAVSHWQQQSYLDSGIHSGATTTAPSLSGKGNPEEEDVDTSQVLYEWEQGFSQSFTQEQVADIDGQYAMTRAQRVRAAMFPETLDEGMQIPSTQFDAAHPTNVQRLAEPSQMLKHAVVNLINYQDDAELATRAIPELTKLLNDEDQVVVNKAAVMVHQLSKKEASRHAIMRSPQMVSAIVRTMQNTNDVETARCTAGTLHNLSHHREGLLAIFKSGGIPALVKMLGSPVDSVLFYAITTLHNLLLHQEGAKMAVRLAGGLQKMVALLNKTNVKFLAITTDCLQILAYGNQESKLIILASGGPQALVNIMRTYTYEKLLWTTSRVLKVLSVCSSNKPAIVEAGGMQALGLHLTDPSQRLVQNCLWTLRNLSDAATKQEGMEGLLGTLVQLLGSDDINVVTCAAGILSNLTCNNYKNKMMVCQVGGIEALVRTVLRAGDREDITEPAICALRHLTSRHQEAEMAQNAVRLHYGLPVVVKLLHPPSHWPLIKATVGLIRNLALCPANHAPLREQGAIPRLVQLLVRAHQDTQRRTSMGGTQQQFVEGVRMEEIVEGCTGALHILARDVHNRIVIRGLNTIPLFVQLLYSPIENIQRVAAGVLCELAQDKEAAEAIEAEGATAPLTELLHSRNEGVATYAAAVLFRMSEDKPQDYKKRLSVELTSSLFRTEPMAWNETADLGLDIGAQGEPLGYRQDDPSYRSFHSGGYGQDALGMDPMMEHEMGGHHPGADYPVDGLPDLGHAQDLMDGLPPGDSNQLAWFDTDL
T1 sequence (O00512 whole entry): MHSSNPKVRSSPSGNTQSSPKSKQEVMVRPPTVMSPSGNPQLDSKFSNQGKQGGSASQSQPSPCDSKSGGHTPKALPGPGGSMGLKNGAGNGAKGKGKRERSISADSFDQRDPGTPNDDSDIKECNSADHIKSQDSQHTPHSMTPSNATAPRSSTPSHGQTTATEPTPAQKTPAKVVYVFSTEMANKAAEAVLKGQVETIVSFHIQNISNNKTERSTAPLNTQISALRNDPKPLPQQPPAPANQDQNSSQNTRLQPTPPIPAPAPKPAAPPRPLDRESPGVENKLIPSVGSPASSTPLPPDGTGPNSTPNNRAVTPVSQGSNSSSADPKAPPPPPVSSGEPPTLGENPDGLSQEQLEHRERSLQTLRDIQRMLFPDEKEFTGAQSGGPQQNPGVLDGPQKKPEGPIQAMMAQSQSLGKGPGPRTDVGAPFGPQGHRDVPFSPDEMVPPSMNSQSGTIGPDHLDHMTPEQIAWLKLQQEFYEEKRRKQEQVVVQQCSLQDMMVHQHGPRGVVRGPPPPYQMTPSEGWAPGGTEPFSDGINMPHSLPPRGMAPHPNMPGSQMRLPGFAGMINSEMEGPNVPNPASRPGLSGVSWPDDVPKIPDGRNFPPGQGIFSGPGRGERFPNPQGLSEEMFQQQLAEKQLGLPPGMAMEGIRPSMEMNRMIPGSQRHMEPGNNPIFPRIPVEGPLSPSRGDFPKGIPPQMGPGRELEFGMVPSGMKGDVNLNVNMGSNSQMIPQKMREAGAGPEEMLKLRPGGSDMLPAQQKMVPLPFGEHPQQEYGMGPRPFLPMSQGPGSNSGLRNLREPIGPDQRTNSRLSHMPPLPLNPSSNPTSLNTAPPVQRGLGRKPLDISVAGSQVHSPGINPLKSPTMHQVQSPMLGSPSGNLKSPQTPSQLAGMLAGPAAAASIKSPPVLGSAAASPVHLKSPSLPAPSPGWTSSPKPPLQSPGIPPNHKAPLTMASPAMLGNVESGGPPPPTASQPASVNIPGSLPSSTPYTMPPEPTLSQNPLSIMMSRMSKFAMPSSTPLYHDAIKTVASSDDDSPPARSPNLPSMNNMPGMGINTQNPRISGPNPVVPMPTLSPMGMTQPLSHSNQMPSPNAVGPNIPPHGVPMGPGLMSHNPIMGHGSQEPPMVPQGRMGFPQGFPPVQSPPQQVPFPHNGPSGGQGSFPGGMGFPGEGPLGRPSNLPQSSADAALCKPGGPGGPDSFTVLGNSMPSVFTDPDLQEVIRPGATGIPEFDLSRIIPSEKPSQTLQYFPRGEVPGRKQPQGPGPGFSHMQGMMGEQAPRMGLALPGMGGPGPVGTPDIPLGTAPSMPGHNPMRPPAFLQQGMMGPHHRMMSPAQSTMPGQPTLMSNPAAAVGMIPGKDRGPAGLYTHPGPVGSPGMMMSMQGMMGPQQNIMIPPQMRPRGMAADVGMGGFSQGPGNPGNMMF

Structure (SMILES) | inhibition (CT26 [1]) | Activity (HCT-116) | Activity (CT26 [2]) | Activity [3] | Activity (HEK293 [4]) | Activity (CT26 [5]) | Activity (CT26 [6]) | Activity (HEK293 [7]) | Activity [8] | IC50 [9]
CC(C)c1ccc(-c2cccc(S(=O)(=O)N3CCCC(c4cccc(OC(C)(C)C(=O)NS(=O)(=O)c5ccc(C(F)(F)F)cc5)c4)C3)c2)cc1 (stereo not given) | Active | 33.1% | Active | Non-Toxic | inactive | Active | Dose-Dependent Effect | 1.69% | Non-Toxic | 
O=C1[C@H](Cc2ccc(O)cc2)N2C(=O)CCN(C(=O)NCc3ccccc3)[C@H]2CN1Cc1cccc2ccccc12 |  |  |  |  |  |  |  |  |  | 38.3 µM
